Test results: ChEMBL document CHEMBL4616663, “Resorcylic Acid Lactones from an Ilyonectria sp” (J Nat Prod, 2020)
Calls of active or inactive are those of the source. The rule behind the calls is not given here.

What was measured:
[1] = tested on: A549; assay: Cytotoxicity against human A549 cells at 50 uM by MTT assay; type: functional, cell-based
[2] = tested on: 769-P; assay: Cytotoxicity against human 769-P cells at 50 uM by MTT assay; type: functional, cell-based
[3] = tested on: HCT-116; assay: Cytotoxicity against human HCT116 cells at 50 uM by MTT assay; type: functional, cell-based
[4] = tested on: A549; assay: Cytotoxicity against TRAIL-resistant human A549 cells assessed as reduction in cell viability at 50 uM cotreated with TRAIL after 24 hrs by MTT assay relative to compound alone; type: functional
[5] = tested on: A549; assay: Cytotoxicity against TRAIL-resistant human A549 cells assessed as reduction in cell viability at 30 uM cotreated with TRAIL after 24 hrs by MTT assay relative to compound alone; type: functional
[6] = tested on: A549; assay: Cytotoxicity against TRAIL-resistant human A549 cells assessed as reduction in cell viability at 15 uM cotreated with TRAIL after 24 hrs by MTT assay relative to compound alone; type: functional
[7] = tested on: T-cell; assay: Immunosuppressive activity in BALB/c mouse T cells assessed as reduction in ConA-induced cell proliferation; type: functional, cell-based
[8] = tested on: B-cell line; assay: Immunosuppressive activity in BALB/c mouse B cells assessed as reduction in LPS-induced cell proliferation; type: functional, cell-based

For `C[C@@H]1C/C=C/CC/C=C/[C@@H](O)CC(=O)Cc2c(Cl)c(O)cc(O)c2C(=O)O1`, the Activity [1] was “inactive”, the Activity [2] was “inactive” and the Activity [3] was “inactive”. It also gave an Activity [4] of 29%, an Activity [5] of 31% and an Activity [6] of 22%. For the same compound, the IC50 [7] was 4.1 µM and the IC50 [8] was 9.8 µM.
For `C[C@@H]1C[C@@H](O)[C@@H]2CC[C@H](CC(=O)Cc3cc(O)cc(O)c3C(=O)O1)O2`, the Activity [1] was “inactive”, the Activity [2] was “inactive” and the Activity [3] was “inactive”. It also gave an IC50 [7] greater than 25 µM and an IC50 [8] greater than 25 µM.
For `C[C@@H]1C/C=C/C(=O)CCCC(=O)Cc2cc(O)cc(O)c2C(=O)O1`, the Activity [1] was “inactive”, the Activity [2] was “inactive” and the Activity [3] was “inactive”. For the same compound, the IC50 [7] was greater than 25 µM and the IC50 [8] was 18.5 µM.
For `CO[C@@H]1C=CC=C2Cc3c(Cl)c(O)cc(O)c3C(=O)O[C@H](C)C[C@@H](O)[C@H]1O2`, the Activity [1] was “inactive”, the Activity [2] was “inactive” and the Activity [3] was “inactive”. It also gave an IC50 [7] greater than 25 µM and an IC50 [8] of 5.5 µM.
With `C[C@@H]1CC(=O)CCC/C=C/C(=O)Cc2c(Cl)c(O)cc(O)c2C(=O)O1` the Activity [1] was “inactive”, the Activity [2] was “inactive” and the Activity [3] was “inactive”. It also gave an IC50 [7] greater than 25 µM and an IC50 [8] greater than 25 µM.
In the case of `C[C@@H]1CC[C@H](O)C(=O)CCCC(=O)Cc2c(Cl)c(O)cc(O)c2C(=O)O1`, the Activity [1] is reported as “inactive”, the Activity [2] is reported as “inactive” and the Activity [3] is reported as “inactive”. The IC50 [7] was greater than 25 µM and the IC50 [8] was greater than 25 µM.
For `C[C@@H]1C/C=C/CCCC[C@H](O)CC(=O)Cc2c(Cl)c(O)cc(O)c2C(=O)O1`, the Activity [1] was “inactive”, the Activity [2] was “inactive” and the Activity [3] was “inactive”. It also gave an Activity [4] of 27%, an IC50 [7] greater than 25 µM and an IC50 [8] greater than 25 µM.
With `C[C@@H]1C[C@@H]2O[C@H]2[C@@H]2O[C@@H]2/C=C/[C@@H](O)CC(=O)Cc2c(Cl)c(O)cc(O)c2C(=O)O1` the Activity [1] was “inactive”, the Activity [2] was “inactive” and the Activity [3] was “inactive”. It also gave an IC50 [7] of 1.9 µM and an IC50 [8] of 1.1 µM.
Work on `COc1c(C)c2c(c(O)c1C/C=C(\C)CCC(=O)OCCN1CCOCC1)C(=O)OC2` [MYCOPHENOLATE MOFETIL] yielded an IC50 [8] of 3.2 µM.
`C[C@@H]1C/C=C/CCCC[C@@H](O)CC(=O)Cc2c(Cl)c(O)cc(O)c2C(=O)O1` was tested, and the Activity [1] was “inactive”, the Activity [2] was “inactive” and the Activity [3] was “inactive”. It also gave an Activity [4] of 26%, an IC50 [7] greater than 25 µM and an IC50 [8] greater than 25 µM.
`C[C@H]1OC(=O)c2c(O)cc(O)cc2CC(=O)CCCC/C=C/[C@@H]1O` was tested, and the Activity [1] was “inactive”, the Activity [2] was “inactive” and the Activity [3] was “inactive”. The IC50 [7] was greater than 25 µM and the IC50 [8] was greater than 25 µM.
In the case of `C[C@H]1OC(=O)c2c(O)cc(O)c(Cl)c2/C=C/CC/C=C/[C@@H]1O`, the Activity [1] is reported as “inactive”, the Activity [2] is reported as “inactive” and the Activity [3] is reported as “inactive”. The IC50 [7] was greater than 25 µM and the IC50 [8] was greater than 25 µM.
In the case of `C[C@@H]1C[C@@H](O)/C=C\CCCC(=O)Cc2c(Cl)c(O)cc(O)c2C(=O)O1`, the Activity [1] is reported as “inactive”, the Activity [2] is reported as “inactive” and the Activity [3] is reported as “inactive”. For the same compound, the IC50 [7] was greater than 25 µM and the IC50 [8] was 21.9 µM.
